The assay addresses Carbonic anhydrase 2 (Bos taurus, UniProt P00921). As to the kind of experiment: Carbonic Anhydrase (bCAII) Inhibition Assay. The conditions noted are these: pH 7.2. The procedure: This was assay performed using buffer containing Tris and HEPES at the pH of 7.2-7.9 and a total concentration of 20 mM. 96-well plates were filled with 140 µL of Tris-HEPES solution, 20 µL of bovine erythrocyte carbonic anhydrase II solution (0.1-0.2 mg/2000 mL), and 20 µL of 0.7 mM para-nitrophenyl acetate (diluted in ethanol). Test compounds were incubated at 25-28 °C for 15 min prior to addition of para-nitrophenyl acetate, which starts the reaction. The reaction was allowed to taking place for 30 min at 25-28 °C. All compounds tested in triplicate at different concentration. The amount of product that forms during thereaction monitored at 400 nm after 30 min using SPECTRA-max 340 spectrophotometer, Molecular Devices (USA).

The values below come from BindingDB's records for doi:10.1016/j.bioorg.2016.07.011 (Universiti Teknologi Mara (Uitm), 2016).

Chain of Carbonic anhydrase 2 (P00921 whole entry): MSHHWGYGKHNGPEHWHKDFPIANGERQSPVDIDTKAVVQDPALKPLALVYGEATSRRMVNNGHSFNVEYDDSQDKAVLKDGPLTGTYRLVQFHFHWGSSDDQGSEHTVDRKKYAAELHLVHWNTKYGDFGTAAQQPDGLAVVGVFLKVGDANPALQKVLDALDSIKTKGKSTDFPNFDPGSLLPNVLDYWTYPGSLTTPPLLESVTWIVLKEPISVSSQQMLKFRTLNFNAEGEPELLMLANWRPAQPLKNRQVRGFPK

A word on the IC50: it is the midpoint of a concentration-inhibition curve. Low readings indicate greater potency in that assay, high ones weaker potency in that assay. Regarding `O=[N+]([O-])c1ccc(S(=O)(=O)Nc2ccc(C(c3c[nH]c4ccc(Cl)cc34)c3c[nH]c4ccc(Cl)cc34)cc2)c([N+](=O)[O-])c1` [N-(4-(bis(5-chloro-1H-indol-3-yl)methyl)phenyl)-2,4-dinitrobenzenesulfonamide (5g)], the IC50 worked out at 15.6 µM.

The compound `O=[N+]([O-])c1ccccc1S(=O)(=O)Nc1ccc(C(c2c[nH]c3ccccc23)c2c[nH]c3ccccc23)cc1` [N-(4-(di(1H-indol-3-yl)methyl)phenyl)-2-nitrobenzenesulfonamide (3d)] returned an IC50 of 35.9 µM.

The compound `O=S(=O)(Nc1ccc(C(c2c[nH]c3ccc(Br)cc23)c2c[nH]c3ccc(Br)cc23)cc1)c1cc(Cl)cc(Cl)c1O` [N-(4-(bis(5-bromo-1H-indol-3-yl)methyl)phenyl)-3,5-dichloro-2-hydroxybenzenesulfonamide (4k)] yielded an IC50 of 18.8 µM.

`O=S(=O)(Nc1ccc(C(c2c[nH]c3ccc(Cl)cc23)c2c[nH]c3ccc(Cl)cc23)cc1)c1cc(Cl)cc(Cl)c1O` [N-(4-(bis(5-chloro-1H-indol-3-yl)methyl)phenyl)-3,5-dichloro-2-hydroxybenzenesulfonamide (5k)]: the IC50 turned out to be 20.2 µM.

Compound `O=S(=O)(Nc1ccc(C(c2c[nH]c3ccc(Br)cc23)c2c[nH]c3ccc(Br)cc23)cc1)c1cc(Cl)c(Cl)cc1Cl` [N-(4-(bis(5-bromo-1H-indol-3-yl)methyl)phenyl)-2,4,5-trichlorobenzenesulfonamide (4f)] yielded an IC50 of 40.3 µM.

`O=[N+]([O-])c1cc(S(=O)(=O)Nc2ccc(C(c3c[nH]c4ccc(Br)cc34)c3c[nH]c4ccc(Br)cc34)cc2)ccc1Cl` [N-(4-(bis(5-bromo-1H-indol-3-yl)methyl)phenyl)-4-chloro-3-nitrobenzenesulfonamide (4h)]: the half-maximal inhibitory concentration (IC50) came to 83.1 µM.

Turning to `O=[N+]([O-])c1ccc(S(=O)(=O)Nc2ccc(C(c3c[nH]c4ccc(Br)cc34)c3c[nH]c4ccc(Br)cc34)cc2)cc1` [N-(4-(bis(5-bromo-1H-indol-3-yl)methyl)phenyl)-4-nitrobenzenesulfonamide (4b)], the IC50 was found to be 63.9 µM.

Consider `Cc1ccc([N+](=O)[O-])cc1S(=O)(=O)Nc1ccc(C(c2c[nH]c3ccc(Cl)cc23)c2c[nH]c3ccc(Cl)cc23)cc1` [N-(4-(bis(5-chloro-1H-indol-3-yl)methyl)phenyl)-2-methyl-5-nitrobenzenesulfonamide (5i)], for which the midpoint of inhibition, the IC50, lay at 14.3 µM.

Compound `O=[N+]([O-])c1ccc(S(=O)(=O)Nc2ccc(C(c3c[nH]c4ccc(Br)cc34)c3c[nH]c4ccc(Br)cc34)cc2)c([N+](=O)[O-])c1` [N-(4-(bis(5-bromo-1H-indol-3-yl)methyl)phenyl)-2,4-dinitrobenzenesulfonamide (4g)] had an IC50 of 28.9 µM.

Compound `O=S(=O)(Nc1ccc(C(c2c[nH]c3ccccc23)c2c[nH]c3ccccc23)cc1)c1cc(Cl)cc(Cl)c1O` [3,5-Dichloro-N-(4-(di(1H-indol-3-yl)methyl)phenyl)-2-hydroxybenzenesulfonamide (3k)] returned an IC50 of 58.1 µM.

In turn, `COc1ccc(Cl)cc1S(=O)(=O)Nc1ccc(C(c2c[nH]c3ccc(Cl)cc23)c2c[nH]c3ccc(Cl)cc23)cc1` [N-(4-(bis(5-chloro-1H-indol-3-yl)methyl)phenyl)-5-chloro-2-methoxybenzene sulfonamide (5e)] gave an IC50 of 176 µM.

In turn, `O=[N+]([O-])c1ccccc1S(=O)(=O)Nc1ccc(C(c2c[nH]c3ccc(Br)cc23)c2c[nH]c3ccc(Br)cc23)cc1` [N-(4-(bis(5-bromo-1H-indol-3-yl)methyl)phenyl)-2-nitrobenzenesulfonamide (4d)] returned a concentration for half-maximal inhibition (IC50) of 65.2 µM.

The compound `O=S(=O)(Nc1ccc(C(c2c[nH]c3ccc(Cl)cc23)c2c[nH]c3ccc(Cl)cc23)cc1)c1cc(Cl)c(Cl)cc1Cl` [N-(4-(bis(5-chloro-1H-indol-3-yl)methyl)phenyl)-2,4,5-trichlorobenzenesulfonamide (5f)] gave an IC50 of 16.3 µM.

In turn, `O=S(=O)(Nc1ccc(C(c2c[nH]c3ccc(Cl)cc23)c2c[nH]c3ccc(Cl)cc23)cc1)c1ccc(Cl)cc1` [N-(4-(bis(5-chloro-1H-indol-3-yl)methyl)phenyl)-4-chlorobenzenesulfonamide (5l)] displayed an IC50 of 45.5 µM.

`O=[N+]([O-])c1cc(S(=O)(=O)Nc2ccc(C(c3c[nH]c4ccc(Cl)cc34)c3c[nH]c4ccc(Cl)cc34)cc2)ccc1Cl` [N-(4-(bis(5-chloro-1H-indol-3-yl)methyl)phenyl)-4-chloro-3-nitrobenzenesulfonamide (5h)]: 68.9 µM corresponded to half-maximal inhibition (IC50).

Compound `O=S(=O)(Nc1ccc(C(c2c[nH]c3ccc(Br)cc23)c2c[nH]c3ccc(Br)cc23)cc1)c1ccc2ccccc2c1` [N-(4-(bis(5-bromo-1H-indol-3-yl)methyl)phenyl)naphthalene-2-sulfonamide (4c)] showed an IC50 of 90.4 µM.

In turn, `Cc1ccc([N+](=O)[O-])cc1S(=O)(=O)Nc1ccc(C(c2c[nH]c3ccc(Br)cc23)c2c[nH]c3ccc(Br)cc23)cc1` [N-(4-(bis(5-bromo-1H-indol-3-yl)methyl)phenyl)-2-methyl-5-nitrobenzenesulfonamide (4i)] yielded an IC50 of 44.3 µM.

The compound `O=[N+]([O-])c1ccccc1S(=O)(=O)Nc1ccc(C(c2c[nH]c3ccc(Cl)cc23)c2c[nH]c3ccc(Cl)cc23)cc1` [N-(4-(bis(5-chloro-1H-indol-3-yl)methyl)phenyl)-2-nitrobenzenesulfonamide (5d)] gave a half-maximal inhibitory concentration (IC50) of 44.5 µM.
